Results from US9146237B2, “In vitro assay method using immunological technique” (BASF Beauty Care Solutions France S.A.S., priority 2011, dated 2015).

Key:
[1] = system: intracellular procollagen; assay: Procollagen assay by ELISA (PIPc kit) on collected lysis medium; type: cell-based, human; conditions: Example 4
Experimental: A lysis step was carried out: 110 μl of an ammonium hydroxide solution at 20 mM for 10 minutes at room temperature and with stirring. The experiment was carried out without active ingredient on the one hand and with ascorbic acid solubilized in PBS at different concentrations from 0.1 to 100 μM. On the collected lysis medium, a procollagen assay (PIPc kit, TAKARA) by ELISA was carried out for determining the amount of intracellular procollagen (Table 4.2). A DNA assay (Picogreen kit, Invitrogen) was also carried out for rationalizing all of the measurements in each well to the quantity of viable cells. The amounts of collagen and procollagen measured were rationalized to the amount of DNA present in each well.

[2] = system: type I collagen in the ECM; assay: Assay of type I collagen directly on the ECM of fibroblast cultures (anticollagen I antibody, europium TRF); type: cell-based, human
Experimental: After 48 hours of culture post-confluency, the culture medium was removed and discarded. A lysis step was carried out: 110 μl of an ammonium hydroxide solution at 20 mM for 10 minutes at room temperature and with stirring. The lysate was collected and analysed. The double-stranded DNA contained in the lysate was assayed by using the bisbenzimide method (Picogreen Kit, Invitrogen). The collagen in the ECM was assayed directly on the ECM by using an anticollagen I antibody. A secondary antibody conjugated to europium was used with a detection solution and the fluorescence was measured. (Delfia® kit—Perkin Elmer). The fluorescence results were rationalized relative to the amount of dsDNA measured. The experiment was carried out without active ingredient on the one hand and with ascorbic acid solubilized in PBS at different concentrations from 0.1 to 100 μM. The experiment was carried out according to the protocol described in example 1 with fibroblasts extracted from a biopsy from a donor. The cells at confluency were incubated in the presence of the active ingredients for 48 hours at 37° C. under 0.5% CO2 or without active ingredient (control) for 48 hours at 37° C. under 0.5% CO2. […]

O=C1O[C@H]([C@@H](O)CO)C(O)=C1O [Ascorbic acid]
Procollagen concentration in the intracellular compartment versus untreated control [1]: less than that observed with the untreated control
Effect on amount of collagen I in the ECM ([2]; 50 μM, Example 6): significant increase in the amount of collagen I in the ECM
Concentration up to which the effect on content of collagen I in the ECM is dose-dependent (threshold effect) ([2]; Example 4, 0.1 to 100 μM): up to 50 μM
